Measured values taken from patent US6521631B2, “Heterocyclic sulfonamides” (Hoffmann-La Roche Inc., priority 1999, dated 2003).

What was measured:
human ETA receptors = molecular target: T1, human ETA receptors (Homo sapiens, UniProt P25101); assay: Inhibition of 125I-endothelin binding to recombinant human ETA receptors expressed in Baculovirus-infected insect cells; conditions: recombinant human ETA receptor membranes, 20 pM 125I-endothelin; read-out: IC50, concentration required to inhibit 50% of the specific binding of 125I-endothelin
T1 construct: made in house; host or cells: Baculovirus-infected insect cells (membrane preparation)
T1 sequence (P25101 21-427): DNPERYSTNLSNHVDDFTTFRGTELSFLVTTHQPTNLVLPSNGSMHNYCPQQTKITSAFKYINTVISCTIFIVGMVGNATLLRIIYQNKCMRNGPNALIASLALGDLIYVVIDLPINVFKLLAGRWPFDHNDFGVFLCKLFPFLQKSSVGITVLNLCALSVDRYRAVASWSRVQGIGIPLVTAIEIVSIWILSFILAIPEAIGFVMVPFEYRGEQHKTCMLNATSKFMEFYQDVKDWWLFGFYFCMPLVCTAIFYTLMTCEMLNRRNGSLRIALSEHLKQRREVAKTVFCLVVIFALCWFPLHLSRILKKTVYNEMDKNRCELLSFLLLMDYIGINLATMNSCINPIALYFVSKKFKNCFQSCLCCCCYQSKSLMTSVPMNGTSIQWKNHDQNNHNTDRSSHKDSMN
Protocol: I. Inhibition of Endothelin Binding to Recombinant Human ETA Receptors Expressed in Baculovirus-infected Insect Cells
A cDNA coding for human ETA receptors of human placenta was cloned (M. Adachi, Y.-Y. Yang, Y. Furuichi and C. Miyamoto, BBRC 180, 1265-1272) and expressed in the Baculovirus-insect cell system. Baculovirus-infected insect cells from a 23 l fermenter are centrifuged off (3000×g, 15 minutes, 4° C.) 60 hours after the infection, re-suspended in Tris buffer (5 mM, pH 7.4, 1 mM MgCl2) and again centrifuged. After a further re-suspension and centrifugation the cells are suspended in 800 ml of the same buffer and freeze-dried at −120° C. The cells disintegrate when the suspension in this hypotonic buffer mixture is thawed. After a repeated […]/thawing cycle the suspension is homogenised and centrifuged (25000×g, 15 minutes, 4° C.). After suspension in Tris buffer (75 mM, pH 7.4, 25 mM MgCl2, 250 mM sucrose) 1 ml aliquots (protein content about 3.5 mg/ml) are stored at −85° C.
For the binding assay, the freeze-dried membrane preparations are thawed and, after centrifugation at 20° C. and 25000 g for 10 minutes, re-suspended in assay buffer (50 mM Tris buffer, pH 7.4, containing 25 mM MnCl2, 1 mM EDTA and 0.5% bovine serum albumin). 100 μl of this membrane suspension containing 70 μg of protein are incubated with 50 μl of ^125I-endothelin (specific activity 2200 Ci/mMol) in assay buffer (25000 cpm, final concentration 20 pM) and 100 μl of assay buffer containing varying concentrations of test compound. The incubation is carried out at 20° C. for 2 hours or at 4° C. for 24 hours. The separation of free and membrane-bound radio-ligands is carried out by filtration over a glass fibre filter. The inhibitory activity of compounds of formula (I) determined in this test procedure is given in Table 1 as the IC50, i.e. as the concentration [nM] which is required to inhibit 50% of the specific binding of ^125I-endothelin.

isolated rat aorta rings = conditions: for pA2: shift to the right of the endothelin-1 dosage-activity curve, endothelium-denuded thorax aorta rings
Protocol: Inhibition of Endothelin-induced Contractions in Isolated Rat Aorta Rings
Rings with a length of 5 mm were cut out from the thorax aorta of adult Wistar-Kyoto rats. The endothelium was removed by lightly rubbing the internal surface. Each ring was immersed at 37° C. in 10 ml of Krebs-Henseleit solution in an isolated bath while gassing with 95% O2 and 5% CO2. The isometric stretching of the rings was measured. The rings were stretched to a pre-tension of 3 g. After incubation for 10 minutes with the test compound or vehicle cumulative dosages of endothelin-1 were added. […] This shift to the right (or “dose ratio”, DR) corresponds to the quotient from the EC50 values of endothelin-1 in the presence and in the absence of antagonist, with the EC50 value denoting the endothelin concentration required for a half-maximum contraction.
The corresponding pA2 value, which is a measure of the activity of the test compound, was calculated using a computer programme according to the following equation from the “dose ratio” DR for each individual dosage-activity curve.
pA2=log(DR−1)−log(antagonist-concentration)

Row | IC50 (human ETA receptors) | melting point | Structure (SMILES) | pA2 (isolated rat aorta rings) | EC50 (isolated rat aorta rings; read-out: EC50 of endothelin in the absence of test compounds, endothelin concentration required for a half-maximum contraction, no antagonist)
1 | ≤ 0.05 µM | 195 to 197 °C | COc1ccccc1Oc1c(NS(=O)(=O)c2ccc(C(C)C)cn2)nc(-c2ccncc2)nc1OC [Example 2, 5-isopropyl-pyridine-2-sulfonic acid[6-methoxy-5-(2-methoxy-phenoxy)-2-pyridin-4-yl-pyrimidin-4-yl]-amide] | ≧8.0 | 
2 | ≤ 0.05 µM |  | COc1ccccc1Oc1c(NS(=O)(=O)c2ccc(C)cn2)nc(-c2ccncc2)nc1OC [Example 1, 5-methyl-pyridine-2-sulfonic acid[6-methoxy-5-(2-methoxy-phenoxy)-2-pyridin-4-yl-pyrimidin-4-yl]-amide] | ≧8.0 | 
3 |  |  | CC[C@H](C)[C@H](NC(=O)[C@H](CC(=O)O)NC(=O)[C@H](CC(C)C)NC(=O)[C@H](Cc1c[nH]cn1)NC(=O)[C@@H]1CSSC[C@H](N)C(=O)N[C@@H](CO)C(=O)N[C@H]2CSSC[C@H](NC(=O)[C@H](CCC(=O)O)NC(=O)[C@H](CCCCN)NC(=O)[C@H](CC(=O)O)NC(=O)[C@H](CCSC)NC(=O)[C@H](CC(C)C)NC(=O)[C@H](CO)NC(=O)[C@H](CO)NC2=O)C(=O)N[C@@H](C(C)C)C(=O)N[C@@H](Cc2ccc(O)cc2)C(=O)N[C@@H](Cc2ccccc2)C(=O)N1)C(=O)N[C@H](C(=O)N[C@@H](Cc1c[nH]c2ccccc12)C(=O)O)[C@@H](C)CC [endothelin, reference compound] |  | 0.0003 µM
4 | ≤ 0.05 µM |  | C=C(C)c1ccc(S(=O)(=O)Nc2nc(-c3ccncc3)nc(OC)c2Oc2ccccc2OC)nc1 [Example 3, 5-isopropenyl-pyridine-2-sulfonic acid[6-methoxy-5-(2-methoxy-phenoxy)-2-pyridin-4-yl-pyrimidin-4-yl]-amide] |  | 
